Assay results as given in PubChem BioAssay AID2060505 (Molecular Pharmacology Branch, DTP, NCI, 2025).
Where “and” joins values, the source holds several entries; their conditions need not be identical. Equal values may be shown once.

Test system: 633275-114-R-J1-PDC complex spheroids, viability
Assay: Anticancer human tumor 633275-114-R-J1-PDC patient-derived endometrial adenocarcinoma cell line growth inhibition [GQUAD]
Settings: for viability, T/C: stronger effect = lower value
Source text: DNA G-quadruplex Stabilizer Agents in Combinations in Complex Spheroids
A high-throughput screen of multi-cell type tumor spheroids was designed to identify active combinations of DNA G-quadruplex stabilizer agents and targeted small molecules. Complex spheroids include a stromal component modeled by human endothelial cells (HUVEC) and fibroblasts modeled by human mesenchymal stem cells (MSCs). The concentration ranges selected for each drug and investigational agent were based upon clinically achievable concentrations if the clinical Cmax of the agent was known.
Compounds. The drugs and investigational agents: pidnarulex (CX-5461; NSC782164), APTO-253 (NSC789042), BRACO-19 (NSC847499), peposertib (NSC802822), ceralasertib (NSC780249), elimusertib (NSC800525), camonsertib (NSC841442), AZD-1390 (NSC803789), olaparib (NSC753686), talazoparib (NSC767125), ART-558 (NSC835418), sotorasib (NSC818433), MRTX-1133 (NSC836407), SN-38 (NSC673596), topotecan (NSC609699), etoposide (NSC141540), doxorubicin (NSC123127), gemcitabine (NSC613327), 5-fluorouracil (NSC19893), paclitaxel (NSC125973), vemurafenib (NSC761431), panobinostat (NSC761190), R-306465 (JNJ-16241199; NSC773264), adavosertib (NSC754352), TP-3654 (NSC805149), carboplatin (NSC241240), KSQ-4279 (NSC840948), and staurosporine (NSC755774) were obtained from the National Cancer Institute (NCI) Developmental Therapeutics Program Chemical Repository (34). The FDA-approved anticancer drug set is available from the NCI Developmental Therapeutics Program. […] The stock solutions were prepared in dimethyl sulfoxide (DMSO, Sigma-Aldrich, St. Louis, MO, cat. D2650) at 800-fold the tested concentration and stored at -70 degrees C prior to their use. All drugs and investigational agents were tested over a range starting from a high concentration at or near the clinical Cmax and decreasing in half-log increments. If the clinical Cmax for an agent had not been determined, the highest concentration tested was 10 microM.
2.3 Cell Culture. All cells were maintained in an incubator at 37 degrees C and 5% CO2 with 95% humidity. The PDC lines were cultured according to standard operating procedures established by the NCI PDMR. All PDCs were thawed and cultured in Matrigel-coated flasks prepared with a working solution of 1X Ham's F-12 nutrient mix, without supplementation (Invitrogen, cat. 11765054), 100 U/mL penicillin-streptomycin (Invitrogen, cat. 15140122), and 2.5% Matrigel (Corning Inc., cat. 354248) for the first three passages. The 857933-349-R-J2-PDC line was cultured in 6C/Colon 1B media, which includes advanced DMEM/F-12 (Thermo Fisher Scientific, cat. 12634028), 10 mM HEPES (Thermo Fisher Scientific, cat. 15630080), 1X GlutaMAX supplement (Thermo Fisher Scientific, cat. 35050061), 0.1 mg/mL primocin (InvivoGen, cat. ant-pm-2), 10% defined fetal bovine serum, heat inactivated (HyClone Laboratories Inc., cat. SH30070.03HI), 50% L-WRN conditioned media (ATCC, cat. CRL-3276), 1.25 mM N-Acetyl-L-cysteine (Sigma-Aldrich, cat. A9165), 10 mM nicotinamide (Sigma-Aldrich, cat. N0636), 1X B-27 supplement (Thermo Fisher Scientific, cat. 17504044), 1X N-2 supplement (Thermo Fisher Scientific, cat. 17502048), 10 microM Y-27632 dihydrochloride (Tocris Bioscience, cat. 1254), and 50 ng/mL human EGF recombinant protein (Thermo Fisher Scientific, cat. PHG0311). The 485176-168-R4-J1-PDC line was cultured in Panc media, which includes all 6C/Colon 1B media components plus 100 ng/mL human FGF-10 (Thermo Fisher Scientific, cat. 100-26), 500 nM SB-431542 (Selleckchem, cat. S1067), and gastrin (Tocris, cat. 3006).
[…]
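Note: spheroids exposed to the agents for seven days.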
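Throughout, for viability, T/C: percent of DMSO vehicle control viability which is 100%.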

For `CC(C)(O)C1CCC(Nc2ccc3ncc(-c4cccc(C(F)(F)F)c4)n3n2)CC1` (stereo not given) + CN(C)c1ccc(Nc2c3ccc(NC(=O)CCN4CCCC4)cc3nc3cc(NC(=O)CCN4CCCC4)ccc23)cc1, which IC50 (curve of first compound, second compound 0.0316 µM) is on record?
The IC50 was 1850 nM.

And the IC50 (curve of first compound, second compound 0.1 µM)?
Its IC50 is 1990 nM.

And the IC50 (curve of first compound, second compound 0.316 µM)?
Its IC50 is 2090 nM.

What about the IC50 (curve of first compound, second compound 1 µM) of the same molecule?
The IC50 was 1820 nM.

What about the IC50 (curve of first compound, second compound 3.16 µM) of the same molecule?
Its IC50 is 1310 nM.

What about the IC50 (curve of first compound, second compound 10 µM) of the same molecule?
Its IC50 is < 31.6 nM.

What about the viability, T/C (second compound 0.0316 µM, first compound 0.0316 µM) of the same molecule?
Its viability, T/C is 102%.

And the viability, T/C (second compound 0.0316 µM, first compound 0.1 µM)?
The viability, T/C was 96.8%.

What about the viability, T/C (second compound 0.0316 µM, first compound 0.316 µM) of the same molecule?
The viability, T/C was 90.1%.

What about the viability, T/C (second compound 0.0316 µM, first compound 1 µM) of the same molecule?
The viability, T/C was 72.2%.

What about the viability, T/C (second compound 0.0316 µM, first compound 3.16 µM) of the same molecule?
Its viability, T/C is 28.8%.

And the viability, T/C (second compound 0.0316 µM, first compound 10 µM)?
The viability, T/C was 32.2%.

And the viability, T/C (second compound 0.1 µM, first compound 0.0316 µM)?
The viability, T/C was 94%.

What about the viability, T/C (second compound 0.1 µM, first compound 0.1 µM) of the same molecule?
Its viability, T/C is 99.9%.

And the viability, T/C (second compound 0.1 µM, first compound 0.316 µM)?
Its viability, T/C is 88.2%.

And the viability, T/C (second compound 0.1 µM, first compound 1 µM)?
Its viability, T/C is 70.4%.

What about the viability, T/C (second compound 0.1 µM, first compound 3.16 µM) of the same molecule?
Its viability, T/C is 32.8%.

And the viability, T/C (second compound 0.1 µM, first compound 10 µM)?
The viability, T/C was 39.7%.

What about the viability, T/C (second compound 0.316 µM, first compound 0.0316 µM) of the same molecule?
Its viability, T/C is 97.6%.

What about the viability, T/C (second compound 0.316 µM, first compound 0.1 µM) of the same molecule?
The viability, T/C was 87.7%.

And the viability, T/C (second compound 0.316 µM, first compound 0.316 µM)?
The viability, T/C was 92.6%.

What about the viability, T/C (second compound 0.316 µM, first compound 1 µM) of the same molecule?
Its viability, T/C is 76.1%.

And the viability, T/C (second compound 0.316 µM, first compound 3.16 µM)?
The viability, T/C was 32.7%.

What about the viability, T/C (second compound 0.316 µM, first compound 10 µM) of the same molecule?
Its viability, T/C is 37.8%.

What about the viability, T/C (second compound 1 µM, first compound 0.0316 µM) of the same molecule?
The viability, T/C was 94.6%.

What about the viability, T/C (second compound 1 µM, first compound 0.1 µM) of the same molecule?
Its viability, T/C is 97.2%.

And the viability, T/C (second compound 1 µM, first compound 0.316 µM)?
Its viability, T/C is 88.3%.

What about the viability, T/C (second compound 1 µM, first compound 1 µM) of the same molecule?
Its viability, T/C is 73%.

What about the viability, T/C (second compound 1 µM, first compound 3.16 µM) of the same molecule?
Its viability, T/C is 27.8%.

What about the viability, T/C (second compound 1 µM, first compound 10 µM) of the same molecule?
Its viability, T/C is 28.2%.

What about the viability, T/C (second compound 3.16 µM, first compound 0.0316 µM) of the same molecule?
Its viability, T/C is 85.4%.

And the viability, T/C (second compound 3.16 µM, first compound 0.1 µM)?
The viability, T/C was 69.2%.

And the viability, T/C (second compound 3.16 µM, first compound 0.316 µM)?
The viability, T/C was 81.9%.

What about the viability, T/C (second compound 3.16 µM, first compound 1 µM) of the same molecule?
Its viability, T/C is 59.5%.

What about the viability, T/C (second compound 3.16 µM, first compound 3.16 µM) of the same molecule?
Its viability, T/C is 19.1%.

What about the viability, T/C (second compound 3.16 µM, first compound 10 µM) of the same molecule?
The viability, T/C was 20.4%.

What about the viability, T/C (second compound 10 µM, first compound 0.0316 µM) of the same molecule?
The viability, T/C was 33.1%.

What about the viability, T/C (second compound 10 µM, first compound 0.1 µM) of the same molecule?
The viability, T/C was 32.3%.

And the viability, T/C (second compound 10 µM, first compound 0.316 µM)?
Its viability, T/C is 23.7%.

What about the viability, T/C (second compound 10 µM, first compound 1 µM) of the same molecule?
The viability, T/C was 21.1%.

What about the viability, T/C (second compound 10 µM, first compound 3.16 µM) of the same molecule?
Its viability, T/C is 7.71%.

What about the viability, T/C (second compound 10 µM, first compound 10 µM) of the same molecule?
Its viability, T/C is 6.08%.

How did the viability, T/C (compound 0.0316 µM) turn out when `C#Cc1c(F)ccc2cc(O)cc(-c3ncc4c(N5CC6CCC(C5)N6)nc(OCC56CCCN5CC(F)C6)nc4c3F)c12` (stereo not given) was run?
Its viability, T/C is 113% and 109% and 110%.

What about the viability, T/C (compound 0.1 µM) of the same molecule?
Its viability, T/C is 97.5% and 81% and 88.5%.

What about the viability, T/C (compound 0.316 µM) of the same molecule?
The viability, T/C was 89.9% and 97.2% and 102%.

What about the viability, T/C (compound 1 µM) of the same molecule?
The viability, T/C was 91.7% and 88.4% and 80.4%.

What about the viability, T/C (compound 3.16 µM) of the same molecule?
The viability, T/C was 89.1% and 69.1% and 78.6%.

What about the viability, T/C (compound 10 µM) of the same molecule?
The viability, T/C was 72.7% and 64.9% and 67.2%.

What about the IC50 (curve of compound) of the same molecule?
Its IC50 is > 10000 nM.

With `O=C(NO)c1cnc(N2CCN(S(=O)(=O)c3ccc4ccccc4c3)CC2)nc1` as the molecule, how does the viability, T/C (compound 0.0316 µM) read?
Its viability, T/C is 75.3% and 69.1% and 84.1%.

And the viability, T/C (compound 0.1 µM)?
The viability, T/C was 61.1% and 65.8% and 72.9%.

And the viability, T/C (compound 0.316 µM)?
Its viability, T/C is 38.8% and 38.6% and 43.8%.

And the viability, T/C (compound 1 µM)?
The viability, T/C was 21.8% (2×) and 19.6%.

And the viability, T/C (compound 3.16 µM)?
Its viability, T/C is 12.8% and 12.7% and 13.8%.

What about the viability, T/C (compound 10 µM) of the same molecule?
Its viability, T/C is 5.19% and 5.98% and 4.22%.

What about the IC50 (curve of compound) of the same molecule?
The IC50 was 177 nM and 198 nM and 252 nM.

Which results are given for `O=c1[nH]cc(F)c(=O)[nH]1`?
viability, T/C (compound 0.0316 µM): 103% (2×) and 98.4%; viability, T/C (compound 0.1 µM): 90.1% and 99.8% and 94.7%; viability, T/C (compound 0.316 µM): 91.3% and 105% and 101%; viability, T/C (compound 1 µM): 95.9% and 91.8% and 94.2%; viability, T/C (compound 3.16 µM): 89.3% and 98.9% and 91.8%; viability, T/C (compound 10 µM): 77.6% and 72% and 67.4%; IC50 (curve of compound): > 10000 nM

Which viability, T/C (compound 0.0316 µM) does the source give for `Nc1ccn(C2OC(CO)C(O)C2(F)F)c(=O)n1` (stereo not given) here?
Its viability, T/C is 30.6% and 26.5% and 26.6%.

And the viability, T/C (compound 0.1 µM)?
The viability, T/C was 24.7% and 22.3% and 23.2%.

And the viability, T/C (compound 0.316 µM)?
Its viability, T/C is 28.7% and 23.9% and 24.1%.

And the viability, T/C (compound 1 µM)?
Its viability, T/C is 25.4% and 23.2% and 21.9%.

And the viability, T/C (compound 3.16 µM)?
Its viability, T/C is 27.3% and 23.6% and 20.7%.

And the viability, T/C (compound 10 µM)?
Its viability, T/C is 21.7% and 17.1% and 18.9%.

And the IC50 (curve of compound)?
Its IC50 is < 31.6 nM.
